Measured values: PubChem BioAssay (NCI)
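Five compound concentrations were applied to cells in 96-well plates for 48 hours; endpoints were derived by simple linear interpolation of the resulting dose-response curve. Here, GI50 denotes the concentration required for 50% inhibition of growth. Definition used: TGI = concentration required for complete inhibition of growth.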 *1 amine or outer side, *2 acyl side, *3 side chain or, on linkers, in order; H or OH if unused. Where a SMILES comes first, the peptide text is derived from it. Bridges are numbered along the chain shown (N, C = ends). Roman numbers before positions name the chains, in order. [ ]: non-standard residue; d: D form. Actinocin(9to1) = Cc1c2oc3c(C)ccc(C(=O)[*:1])c3nc-2c(C(=O)[*:2])c(N)c1=O; NMeV = CN[CH](C(=O)O)C(C)C; Sar = CNCC(=O)O

Columns and labels:
Experiment in all cases: NCI anticancer screen, dose series, 48 h
MCF7 breast = test system: MCF7 breast
A498 renal = test system: A498 renal
DU-145 prostate = test system: DU-145 prostate
SR leukemia = test system: SR leukemia
SK-MEL-2 melanoma = test system: SK-MEL-2 melanoma
SK-OV-3 ovarian = test system: SK-OV-3 ovarian
MDA-MB-231 breast = test system: MDA-MB-231 breast
KM20L2 colon = test system: KM20L2 colon
HOP-18 NSCLC = test system: HOP-18 NSCLC
M19-MEL melanoma = test system: M19-MEL melanoma
DLD-1 colon = test system: DLD-1 colon
XF 498 CNS = test system: XF 498 CNS
NCI/ADR-RES ovarian = test system: NCI/ADR-RES ovarian

Row | SMILES | TGI (MCF7 breast) [µM] | TGI (A498 renal) [µM] | TGI (DU-145 prostate) [µM] | TGI (SR leukemia) [µM] | TGI (SK-MEL-2 melanoma) [µM] | TGI (SK-OV-3 ovarian) [µM] | TGI (MDA-MB-231 breast) [µM] | TGI (KM20L2 colon) [µM] | TGI (HOP-18 NSCLC) [µM] | TGI (M19-MEL melanoma) [µM] | TGI (DLD-1 colon) [µM] | TGI (XF 498 CNS) [µM] | TGI (NCI/ADR-RES ovarian) [µM] | GI50 (NCI/ADR-RES ovarian) [nM]
1 | CC1C(NNC(N)=O)Oc2cc3c(cc2C1c1ccccc1O)OCO3 (stereo unspecified) | > 100 | 68.9 | > 100 | 43.1 | > 100 | > 100 | > 100 |  |  |  |  |  |  | 
2 | O=C(NNC(=S)Nc1ccccc1)c1nsc2ccccc12 |  |  |  | 91.1 | > 100 |  |  | > 100 | 41.4 | > 100 |  |  |  | 
3 | CC(C(=O)OCc1ccccc1)N(Cc1ccccc1)Cc1ccccc1 (stereo unspecified) |  | > 100 |  | > 100 | > 100 | > 100 |  | > 100 |  |  | > 100 | 77.7 |  | 
4 | NC(Cc1ccc(OCc2ccccc2)cc1)C(=O)NC(Cc1ccccc1)C(=O)Oc1c(Cl)c(Cl)c(Cl)c(Cl)c1Cl (stereo unspecified) | 36 | 37.9 | 27 | > 100 | 26.5 | 28.9 | 25.7 |  |  |  |  |  | 40.7 | 
5 | Cc1c2oc3c(C)ccc(C(=O)NC4C(=O)NC(Cc5ccccc5)C(=O)N5CCCC5C(=O)N(C)CC(=O)N(C)C(C(C)C)C(=O)OC4C)c3nc-2c(C(=O)NC2C(=O)NC(Cc3ccccc3)C(=O)N3CCCC3C(=O)N(C)CC(=O)N(C)C(C(C)C)C(=O)OC2C)c(N)c1=O (stereo unspecified) (I: TFP[Sar][NMeV] / II: TFP[Sar][NMeV]; ester I:1-I:C, II:1-II:C; linker I:N-II:N via Actinocin(9to1); configuration not given here) | > 100 | 0.0244 |  | < 0.001 |  | 0.524 | 0.255 |  |  |  |  |  | > 100 | 877
6 | COc1ccccc1OCC(COC(=O)Nc1ccccc1)OC(=O)Nc1ccccc1 (stereo unspecified) |  | > 100 |  |  | 67.6 | > 100 |  | > 100 | > 100 |  | > 100 | > 100 |  | 
